This is an account of results in patent US9175003B2, “Substituted azoanthracene derivatives and intermediates for preparation thereof” (TransTech Pharma, LLC, priority 2009, dated 2015).

Structures are written as SMILES.

This test deals with human GLP-1 receptor (Homo sapiens (Human), UniProt P43220). Conditions: read-out: Mean EC50; cAMP, HTRF detection, 30 min at 37° C., HEK-293 cells expressing cloned human GLP-1 receptor. (In general: Time-resolved FRET reads energy transfer from a long-lived donor to a nearby acceptor.)
Chain of human GLP-1 receptor (P43220 24-463): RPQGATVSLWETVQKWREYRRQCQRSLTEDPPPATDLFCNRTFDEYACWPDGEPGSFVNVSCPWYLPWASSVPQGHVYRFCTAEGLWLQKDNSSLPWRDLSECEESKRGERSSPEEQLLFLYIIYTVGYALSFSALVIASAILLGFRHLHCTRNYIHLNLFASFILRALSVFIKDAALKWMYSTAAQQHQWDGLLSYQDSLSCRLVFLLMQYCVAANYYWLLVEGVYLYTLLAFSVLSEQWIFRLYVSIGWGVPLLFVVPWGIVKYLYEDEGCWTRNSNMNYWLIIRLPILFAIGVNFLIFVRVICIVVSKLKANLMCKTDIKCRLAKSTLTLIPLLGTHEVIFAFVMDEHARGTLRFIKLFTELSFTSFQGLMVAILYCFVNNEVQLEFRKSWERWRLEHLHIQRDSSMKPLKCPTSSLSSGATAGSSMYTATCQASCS
Procedure: Following overnight incubation of cells, media was removed, and compounds (at concentrations ranging from 0.0001 to 100 μM) were added to monolayer cells in Iscove's modified dulbecco's medium (IMDM), 100 μM RO 20-1724 PDE inhibitor, 0.1% BSA, 2% DMSO in a final volume of 100 μL, and incubated for 30 min at 37° C. […] Alternatively, cells were harvested and combined with compounds in suspension using the buffer and protocol described above. cAMP was quantified using a homogenous time-resolved fluorescence detection system (cAMP dynamic, CIS bio International).
For orientation: EC50 means the concentration at which the effect is half-maximal. Turning to `N#Cc1ccc(-c2ccc(C[C@H](NC(=O)[C@@H]3Cc4cc5c(cc4CN3C(=O)c3ccoc3)OC(c3ccc(OCc4ccc(Cl)c(Cl)c4)cc3)CO5)C(=O)O)cc2)cc1` (stereo in doubt) [Example 27, (S)-3-(4′-Cyano-biphenyl-4-yl)-2-{[(S)-3-[4-(3,4-dichloro-benzyloxy)-phenyl]-7-(furan-3-carbonyl)-2,3,6,7,8,9-hexahydro-[1,4]dioxino[2,3-g]isoquinoline-8-carbonyl]-amino}-propionic acid], the EC50 amounted to 843 nM.

Turning to `Cn1ccnc1CN1Cc2cc3c(cc2C[C@H]1C(=O)N[C@@H](Cc1ccc(-c2ccc(C#N)cc2)cc1)C(=O)O)OCC(c1ccc(OCc2ccc(Cl)c(Cl)c2)cc1)O3` (stereo in doubt) [Example 40, (S)-3-(4′-Cyano-biphenyl-4-yl)-2-{[(S)-3-[4-(3,4-dichloro-benzyloxy)-phenyl]-7-(1-methyl-1H-imidazol-2-ylmethyl)-2,3,6,7,8,9-hexahydro-[1,4]dioxino[2,3-g]isoquinoline-8-carbonyl]-amino}-propionic acid], the EC50 was 310 nM.

With `CC(=O)N1CC(c2ccc(OCc3ccc(Cl)c(Cl)c3)cc2)Oc2cc3c(cc21)C[C@@H](C(=O)N[C@@H](Cc1ccc(-c2ccc(C#N)cc2)cc1)C(=O)O)N(C(=O)c1ccccc1)C3` (stereo in doubt) [Example 53, (S)-2-({(S)-1-Acetyl-6-benzoyl-3-[4-(3,4-dichloro-benzyloxy)-phenyl]-2,3,5,6,7,8-hexahydro-1H-4-oxa-1,6-diaza-anthracene-7-carbonyl}-amino)-3-(4′-cyano-biphenyl-4-yl)-propionic acid], the EC50 came to 380 nM.

With `Cc1nc(NC(=O)C2CCC2)sc1S(=O)(=O)N1Cc2cc3c(cc2C[C@H]1C(=O)N[C@@H](Cc1ccc(-c2ccc(C#N)cc2)cc1)C(=O)O)OCC(c1ccc(OCc2ccc(Cl)c(Cl)c2)cc1)O3` (stereo in doubt) [Example 55, (S)-3-(4′-Cyano-biphenyl-4-yl)-2-({(S)-7-[2-(cyclobutanecarbonyl-amino)-4-methyl-thiazole-5-sulfonyl]-3-[4-(3,4-dichloro-benzyloxy)-phenyl]-2,3,6,7,8,9-hexahydro[1,4]dioxino[2,3-g]isoquinoline-8-carbonyl}-amino)-propionic acid], the EC50 turned out to be 360 nM.

`CCNc1nc(C)c(S(=O)(=O)N2Cc3cc4c(cc3C[C@H]2C(=O)N[C@@H](Cc2ccc(-c3ccc(C#N)cc3)cc2)C(=O)O)OCC(c2ccc(OCc3ccc(C)c(Cl)c3)cc2)O4)s1` (stereo in doubt) [Example 63, (S)-2-{[(S)-3-[4-(3-Chloro-4-methyl-benzyloxy)-phenyl]-7-(2-ethylamino-4-methyl-thiazole-5-sulfonyl)-2,3,6,7,8,9-hexahydro-[1,4]dioxino[2,3-g]isoquinoline-8-carbonyl]-amino}-3-(4′-cyano-biphenyl-4-yl)-propionic acid]: the concentration giving a half-maximal response (EC50) is 277 nM.

Regarding `Cc1nc(NC(=O)C(F)(F)F)sc1S(=O)(=O)N1Cc2cc3c(cc2C[C@H]1C(=O)N[C@@H](Cc1ccc(-c2ccc(C#N)cc2)cc1)C(=O)O)OCC(c1ccc(OCc2ccc(Cl)c(Cl)c2)cc1)O3` (stereo in doubt) [Example 70, (S)-3-(4′-Cyano-biphenyl-4-yl)-2-({(S)-3-[4-(3,4-dichloro-benzyloxy)-phenyl]-7-[4-methyl-2-(2,2,2-trifluoro-acetylamino)-thiazole-5-sulfonyl]-2,3,6,7,8,9-hexahydro-[1,4]dioxino[2,3-g]isoquinoline-8-carbonyl}-amino)-propionic acid], the EC50 stood at 259 nM.

Regarding `Cc1sc(N)nc1S(=O)(=O)N1Cc2cc3c(cc2C[C@H]1C(=O)N[C@@H](Cc1ccc(-c2ccc(C#N)cc2)cc1)C(=O)O)OCC(c1ccc(OCc2ccc(Cl)c(Cl)c2)cc1)O3` (stereo in doubt) [Example 95, (S)-2-({(S)-7-(2-Amino-5-methyl-thiazole-4-sulfonyl)-3-[4-(3,4-dichloro-benzyloxy)-phenyl]-2,3,6,7,8,9-hexahydro-[1,4]dioxino[2,3-g]isoquinoline-8-carbonyl}-amino)-3-(4′-cyano-biphenyl-4-yl)-propionic acid], the EC50 amounted to 462 nM.

For `CCNc1nc(S(=O)(=O)N2Cc3cc4c(cc3C[C@H]2C(=O)N[C@@H](Cc2ccc(-c3ccc(C#N)cc3)cc2)C(=O)O)OCC(c2ccc(OCc3ccc(Cl)c(Cl)c3)cc2)O4)c(C)s1` (stereo in doubt) [Example 96, (S)-3-(4′-Cyano-biphenyl-4-yl)-2-{[(S)-3-[4-(3,4-dichloro-benzyloxy)-phenyl]-7-(2-ethylamino-5-methyl-thiazole-4-sulfonyl)-2,3,6,7,8,9-hexahydro-[1,4]dioxino[2,3-g]isoquinoline-8-carbonyl]-amino}-propionic acid], the concentration for a half-maximal effect (EC50) is 185 nM.

For `Cc1nc(NCC2CCC2)sc1S(=O)(=O)N1Cc2cc3c(cc2C[C@H]1C(=O)N[C@@H](Cc1ccc(-c2ccc(C#N)cc2)cc1)C(=O)O)OCC(c1ccc(OCc2ccc(Cl)c(Cl)c2)cc1)O3` (stereo in doubt) [Example 105, (S)-3-(4′-Cyano-biphenyl-4-yl)-2-({(S)-7-[2-(cyclobutylmethyl-amino)-4-methyl-thiazole-5-sulfonyl]-3-[4-(3,4-dichloro-benzyloxy)-phenyl]-2,3,6,7,8,9-hexahydro-[1,4]dioxino[2,3-g]isoquinoline-8-carbonyl}-amino)-propionic acid], the EC50 came to 321 nM.

`CCCCNc1nc(C)c(S(=O)(=O)N2Cc3cc4c(cc3C[C@H]2C(=O)N[C@@H](Cc2ccc(-c3ccc(C#N)cc3)cc2)C(=O)O)OCC(c2ccc(OCc3ccc(Cl)c(Cl)c3)cc2)O4)s1` (stereo in doubt) [Example 109, (S)-2-({(S)-7-(2-Butylamino-4-methyl-thiazole-5-sulfonyl)-3-[4-(3,4-dichloro-benzyloxy)-phenyl]-2,3,6,7,8,9-hexahydro-[1,4]dioxino[2,3-g]isoquinoline-8-carbonyl}-amino)-3-(4′-cyano-biphenyl-4-yl)-propionic acid]: the EC50 worked out at 298 nM.

For the molecule `Cc1nc(NCCC(C)C)sc1S(=O)(=O)N1Cc2cc3c(cc2C[C@H]1C(=O)N[C@@H](Cc1ccc(-c2ccc(C#N)cc2)cc1)C(=O)O)OCC(c1ccc(OCc2ccc(Cl)c(Cl)c2)cc1)O3` (stereo in doubt) [Example 110, (S)-3-(4′-Cyano-biphenyl-4-yl)-2-({(S)-3-[4-(3,4-dichloro-benzyloxy)-phenyl]-7-[4-methyl-2-(3-methyl-butylamino)-thiazole-5-sulfonyl]-2,3,6,7,8,9-hexahydro-[1,4]dioxino[2,3-g]isoquinoline-8-carbonyl}-amino)-propionic acid], the EC50 came out at 356 nM.

`CC(=O)Nc1ccc(S(=O)(=O)N2Cc3cc4c(cc3C[C@H]2C(=O)N[C@@H](Cc2ccc(-c3ccc(C#N)cc3)cc2)C(=O)O)OCC(c2ccc(OCc3ccc(Cl)c(Cl)c3)cc2)O4)c(C)c1` (stereo in doubt) [Example 111, (S)-2-({(S)-7-(4-Acetylamino-2-methyl-benzenesulfonyl)-3-[4-(3,4-dichloro-benzyloxy)-phenyl]-2,3,6,7,8,9-hexahydro-[1,4]dioxino[2,3-g]isoquinoline-8-carbonyl}-amino)-3-(4′-cyano-biphenyl-4-yl)-propionic acid]: the EC50 is 44 nM.

Turning to `N#Cc1ccc(-c2ccc(C[C@H](NC(=O)[C@@H]3Cc4cc5c(cc4CN3S(=O)(=O)c3ccc(N4CCOCC4)nc3)OC(c3ccc(OCc4ccc(Cl)c(Cl)c4)cc3)CO5)C(=O)O)cc2)cc1` (stereo in doubt) [Example 112, (S)-3-(4′-Cyano-biphenyl-4-yl)-2-{[(S)-3-[4-(3,4-dichloro-benzyloxy)-phenyl]-7-(6-morpholin-4-yl-pyridine-3-sulfonyl)-2,3,6,7,8,9-hexahydro-[1,4]dioxino[2,3-g]isoquinoline-8-carbonyl]-amino}-propionic acid], the EC50 came to 48 nM.

For the molecule `Cc1nc(NC(=O)C(C)C)sc1S(=O)(=O)N1Cc2cc3c(cc2C[C@H]1C(=O)N[C@@H](Cc1ccc(-c2ccc(C#N)cc2)cc1)C(=O)O)OCC(c1ccc(OCc2ccc(Cl)c(Cl)c2)cc1)O3` (stereo in doubt) [Example 114, (S)-3-(4′-Cyano-biphenyl-4-yl)-2-{[(S)-3-[4-(3,4-dichloro-benzyloxy)-phenyl]-7-(2-isobutyrylamino-4-methyl-thiazole-5-sulfonyl)-2,3,6,7,8,9-hexahydro-[1,4]dioxino[2,3-g]isoquinoline-8-carbonyl]-amino}-propionic acid], the EC50 was 232 nM.

For the molecule `CC(=O)Nc1ccc(S(=O)(=O)N2Cc3cc4c(cc3C[C@H]2C(=O)N[C@@H](Cc2ccc(-c3ccc(C#N)cc3)cc2)C(=O)O)OCC(c2ccc(OCc3ccc(Cl)c(Cl)c3)cc2)O4)cc1` (stereo in doubt) [Example 115, (S)-2-({(S)-7-(4-Acetylamino-benzenesulfonyl)-3-[4-(3,4-dichloro-benzyloxy)-phenyl]-2,3,6,7,8,9-hexahydro-[1,4]dioxino[2,3-g]isoquinoline-8-carbonyl}-amino)-3-(4′-cyano-biphenyl-4-yl)-propionic acid], the EC50 was found to be 163 nM.

In the case of `Cc1nc(N)sc1C(=O)N1Cc2cc3c(cc2C[C@H]1C(=O)N[C@@H](Cc1ccc(-c2ccc(C#N)cc2)cc1)C(=O)O)OCC(c1ccc(OCc2ccc(Cl)c(Cl)c2)cc1)O3` (stereo in doubt) [Example 126, (S)-2-({(S)-7-(2-Amino-4-methyl-thiazole-5-carbonyl)-3-[4-(3,4-dichloro-benzyloxy)-phenyl]-2,3,6,7,8,9-hexahydro-[1,4]dioxino[2,3-g]isoquinoline-8-carbonyl}-amino)-3-(4′-cyano-biphenyl-4-yl)-propionic acid], the EC50 was determined as 312 nM.

Take `Cc1noc(C)c1S(=O)(=O)N1Cc2cc3c(cc2C[C@H]1C(=O)N[C@@H](Cc1ccc(-c2ccc(C#N)cc2)cc1)C(=O)O)OCC(c1ccc(OCc2ccc(Cl)c(Cl)c2)cc1)O3` (stereo in doubt) [Example 128, (S)-3-(4′-Cyano-biphenyl-4-yl)-2-{[(S)-3-[4-(3,4-dichloro-benzyloxy)-phenyl]-7-(3,5-dimethyl-isoxazole-4-sulfonyl)-2,3,6,7,8,9-hexahydro-[1,4]dioxino[2,3-g]isoquinoline-8-carbonyl]-amino}-propionic acid]: the EC50 was found to be 178 nM.
